Data reported in PubChem BioAssay AID1963444 (Molecular Pharmacology Branch, DTP, NCI, 2024).

Tested on: HSSY-II complex spheroid growth, percent test/control
Assay: Anticancer human tumor HSSY-II cell line growth inhibition [Asc];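 further: spheroids exposed to drug for 7 days before reading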
Conditions: for IC50: curve of first compound; for viability, T/C: stronger effect = lower value
In short: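 Complex spheroids combining tumor cells with HUVEC endothelial cells and human MSCs, at 37 degrees C, 5% CO2; agents tested alone or combined, half-log dilutions from at or near clinical Cmax, or 10 microM if Cmax unknown.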

[1] = second compound 0.03 µM, first compound 0.0316 µM
[2] = second compound 0.03 µM, first compound 0.1 µM
[3] = second compound 0.03 µM, first compound 0.316 µM
[4] = second compound 0.03 µM, first compound 1 µM
[5] = second compound 0.03 µM, first compound 3.16 µM
[6] = second compound 0.03 µM, first compound 10 µM
[7] = second compound 0.0949 µM, first compound 0.0316 µM
[8] = second compound 0.0949 µM, first compound 0.1 µM
[9] = second compound 0.0949 µM, first compound 0.316 µM
[10] = second compound 0.0949 µM, first compound 1 µM
[11] = second compound 0.0949 µM, first compound 3.16 µM
[12] = second compound 0.0949 µM, first compound 10 µM
[13] = second compound 0.3 µM, first compound 0.0316 µM
[14] = second compound 0.3 µM, first compound 0.1 µM
[15] = second compound 0.3 µM, first compound 0.316 µM
[16] = second compound 0.3 µM, first compound 1 µM
[17] = second compound 0.3 µM, first compound 3.16 µM
[18] = second compound 0.3 µM, first compound 10 µM
[19] = second compound 0.949 µM, first compound 0.0316 µM
[20] = second compound 0.949 µM, first compound 0.1 µM
[21] = second compound 0.949 µM, first compound 0.316 µM
[22] = second compound 0.949 µM, first compound 1 µM
[23] = second compound 0.949 µM, first compound 3.16 µM
[24] = second compound 0.949 µM, first compound 10 µM
[25] = second compound 3 µM, first compound 0.0316 µM
[26] = second compound 3 µM, first compound 0.1 µM
[27] = second compound 3 µM, first compound 0.316 µM
[28] = second compound 3 µM, first compound 1 µM
[29] = second compound 3 µM, first compound 3.16 µM
[30] = second compound 3 µM, first compound 10 µM

IC50 (second compound 0.03 µM) [nM] | IC50 (second compound 0.0949 µM) [nM] | IC50 (second compound 0.3 µM) [nM] | IC50 (second compound 0.949 µM) [nM] | IC50 (second compound 3 µM) [nM] | Structure (SMILES) | viability, T/C [1] [%] | viability, T/C [2] [%] | viability, T/C [3] [%] | viability, T/C [4] [%] | viability, T/C [7] [%] | viability, T/C [8] [%] | viability, T/C [9] [%] | viability, T/C [10] [%] | viability, T/C [13] [%] | viability, T/C [14] [%] | viability, T/C [15] [%] | viability, T/C [16] [%] | viability, T/C [19] [%] | viability, T/C [20] [%] | viability, T/C [21] [%] | further results
1090 | 340 | < 31.6 | < 31.6 | < 31.6 | C=C(F)C(=O)N1CCN(c2nc(OCC3CCCN3C)nc3c2CCN(c2cccc4cccc(Cl)c24)C3)CC1CC#N (stereo not given) + CCN1C(C(=O)NC23CCC(C(=O)O)(CC2)CC3)C(c2cccc(Cl)c2F)C2(C(=O)Nc3cc(Cl)ccc32)C12CCCCC2 | 93.7 | 82.3 | 77.1 | 55.2 | 64.5 | 66.6 | 49.1 | 26.5 | 26.3 | 23.1 | 19.9 | 13.4 | 8.79 | 7.11 | 6.61 | viability, T/C [5]: 1.72%; viability, T/C [6]: 0.13%; viability, T/C [11]: 0.75%; viability, T/C [12]: 0.1%; viability, T/C [17]: 0.42%; viability, T/C [18]: 0.12%; viability, T/C [22]: 3.73%; viability, T/C [23]: 0.07%; viability, T/C [24]: 0.12%; viability, T/C [25]: 3.47%; viability, T/C [26]: 2.72%; viability, T/C [27]: 2.77%; viability, T/C [28]: 1.35%; viability, T/C [29]: 0.15%; viability, T/C [30]: 0.21%
7300 | 2580 | < 31.6 | < 31.6 | < 31.6 | C=CC(=O)N1CCN(c2nc(=O)n(-c3c(C)ccnc3C(C)C)c3nc(-c4c(O)cccc4F)c(F)cc23)C(C)C1 (stereo not given) + CCN1C(C(=O)NC23CCC(C(=O)O)(CC2)CC3)C(c2cccc(Cl)c2F)C2(C(=O)Nc3cc(Cl)ccc32)C12CCCCC2 | 87.5 | 89.6 | 89.5 | 88 | 60.3 | 63.9 | 65.2 | 62.7 | 25.3 | 26.3 | 26 | 23.6 | 7.57 | 7.88 | 7.75 | viability, T/C [5]: 84.7%; viability, T/C [6]: 36.9%; viability, T/C [11]: 47.3%; viability, T/C [12]: 18.4%; viability, T/C [17]: 20.9%; viability, T/C [18]: 9.83%; viability, T/C [22]: 6.93%; viability, T/C [23]: 6.22%; viability, T/C [24]: 6.06%; viability, T/C [25]: 2.1%; viability, T/C [26]: 2.5%; viability, T/C [27]: 2.3%; viability, T/C [28]: 2.77%; viability, T/C [29]: 2.35%; viability, T/C [30]: 1.69%
26.9 | 3.62 | < 3.16 | < 3.16 | < 3.16 | COc1c(OCCCN2CCOCC2)ccc2c3n(c(=NC(=O)c4cnc(N)nc4)nc12)CCN3 + CCN1C(C(=O)NC23CCC(C(=O)O)(CC2)CC3)C(c2cccc(Cl)c2F)C2(C(=O)Nc3cc(Cl)ccc32)C12CCCCC2 | 42.1 | 32.5 | 21 | 8.92 | 27.9 | 18.8 | 11.1 | 5.81 | 13.5 | 9.78 | 5.2 | 1.51 | 3.58 | 2.14 | 1.08 | viability, T/C (second compound 0.03 µM, first compound 0.00316 µM): 83.3%; viability, T/C (second compound 0.03 µM, first compound 0.01 µM): 70.4%; viability, T/C (second compound 0.0949 µM, first compound 0.00316 µM): 50.1%; viability, T/C (second compound 0.0949 µM, first compound 0.01 µM): 44.8%; viability, T/C (second compound 0.3 µM, first compound 0.00316 µM): 27.8%; viability, T/C (second compound 0.3 µM, first compound 0.01 µM): 18.8%; viability, T/C (second compound 0.949 µM, first compound 0.00316 µM): 5.84%; viability, T/C (second compound 0.949 µM, first compound 0.01 µM): 4.85%; viability, T/C [22]: 0.52%; viability, T/C (second compound 3 µM, first compound 0.00316 µM): 1.52%; viability, T/C (second compound 3 µM, first compound 0.01 µM): 1.05%; viability, T/C [25]: 0.78%; viability, T/C [26]: 0.45%; viability, T/C [27]: 0.29%; viability, T/C [28]: 0.25%
